Data published in patent publication US8197838B2, “Sustained release systems of ascorbic acid phosphate” (Advanced Technologies and Regenerative Medicine, LLC., priority 2008, dated 2012).
Values joined by “and” are separate entries in the source; they are usually repeats but may differ in a detail not shown here. Equal entries are not always repeated.

How the values were obtained:
[1] = AZP drying condition evaluation (weight loss on heating); assay type: physicochemical; settings: for Total Weight loss after 2nd Heat: cumulative; for Weight loss after 1st Heat: Trisodium Salt
Protocol: The following drying conditions for 2-Phospha-L-ascorbic Acid Trisodium Salt (AZP), (>98% (HPLC), Fluka, Lot#: 1322473 52607420) were tested: 90° C./24 hrs. under vacuum, 160° C./30 minutes under dry nitrogen blanket, and 200° C./30 minutes under dry nitrogen blanket. The times tested include estimating the compounding time and time for sample collection and cooling.
6 glass vials were pre-dried in a vacuum oven at 160° C. for 30 minutes and transferred to a glove box purged with dry nitrogen gas. AZP powder was weighed in each vial (see Table 1) in the glove box.
(§1) The dried AZP powder vials were sealed with Parafilm and stored under dry a nitrogen blanket until evaluation. The weight loss % was cumulative over both heating conditions. The samples under RT/N2 were stored in nitrogen box. The samples were evaluated for color change of the course of the heating conditions. Color change is an indicator of AZP degradation. […] The higher temperature and shorter time could have the same drying effects on the weight loss. […] Therefore 160° C. and 30 minutes were selected as the upper limits of the drying and processing condition

[2] = stated by material safety data sheet from an AZP manufacturer; cited from earlier work
[3] = Color change as indicator of AZP degradation; assay type: physicochemical
Protocol: as §1
Films were prepared as follow: The platens of a compression molding instrument (Carver Laboratory Press, Model: 2696) were pre-heated to 205° C. About 3.5 grams of the composition were placed on the platens and heated for 5 minutes. Pressure was applied (about 20,000 lbs) for about 2 minutes. The heating was stopped and the platens and film were allowed to cool to RT under water cooling and continued pressure.

2-Phospha-L-ascorbic Acid Trisodium Salt [AZP]
Total Weight loss after 2nd Heat ([1]; 1st 90° C./Vac 24 hours, 2nd 160° C./N2/air 30 min): 6.25 wt %
Total Weight loss after 2nd Heat ([1]; 1st 90° C./Vac 24 hours, 2nd 200° C./N2/air 30 min): 6.75 wt %
Total Weight loss after 2nd Heat ([1]; 1st 90° C./Vac 24 hours, 2nd RT/N2 30 min): 4.41 wt %
Total Weight loss after 2nd Heat ([1]; 1st RT/N2 24 hours, 2nd 160° C./N2/air 30 min): 10.06 wt %
Total Weight loss after 2nd Heat ([1]; 1st RT/N2 24 hours, 2nd 200° C./N2/air 30 min): 8.10 wt %
Total Weight loss after 2nd Heat ([1]; 1st RT/N2 24 hours, 2nd RT/N2 30 min (control)): 0.25 wt %
Weight loss after 1st Heat ([1]; 1st heat for 24 hours 90° C./Vac): 8.09 wt % and 7.59 wt % and 6.43 wt %
Weight loss after 1st Heat ([1]; 1st heat for 24 hours RT/N2): 1.18 wt % and 1.76 wt % and 1.00 wt %
Moisture content of AZP as received ([1]; as received): up to 7.5 % by weight
Degradation temperature of AZP [2]: about 260 °C
Color change of AZP powder (indicator of degradation) ([3]; sample number 6, 90° C./Vac 24 hrs then heated to 200° C.): darkest yellow color
Color change of AZP powder (indicator of degradation) ([3]; samples heated at 90° C./24 hrs.): very slight yellow color
Color change of AZP powder (indicator of degradation) ([3]; samples heated for no more than 30 minutes): retained the original white color
Color change of AZP powder (indicator of degradation) ([3]; samples that underwent 2 heat treatments): slightly yellow color
